# From patent US20240190883A1, “KRAS PROTEIN DEGRADERS, PHARMACEUTICAL COMPOSITIONS THEREOF, AND THEIR THERAPEUTIC APPLICATIONS” (BioTheryX, Inc., priority 2021, published 2024)
# Like-named read-outs stand apart in the source and are kept apart here.
# How the values were obtained:
# Type in all cases: cell-based
# KRAS protein [1] = molecular target: T1, KRAS protein (Homo sapiens, UniProt P01116); assay: HIBIT degradation assay, HEK293 cells; conditions: 24 h, HiBiT signal normalized to CTG signal; for Effect on KRAS Protein Degradation, HEK293, 3 μM: compound at 3 μM
# T1 construct: engineered to express a Hobbit-tagged endogenous KRAS protein; endogenous in cells; host or cells: HEK293, endogenous KRAS locus engineered with a HiBiT tag
# T1 sequence (P01116 1-188 isoform P01116-2): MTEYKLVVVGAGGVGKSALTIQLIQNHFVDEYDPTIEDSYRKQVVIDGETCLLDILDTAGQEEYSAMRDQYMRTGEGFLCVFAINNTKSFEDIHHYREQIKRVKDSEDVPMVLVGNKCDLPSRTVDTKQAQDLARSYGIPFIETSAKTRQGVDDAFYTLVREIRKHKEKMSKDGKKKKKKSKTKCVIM
# Procedure: (§1) HEK293, MIA PaCa-2, AsPc-1, SW620, and H647 cells were engineered to express a […] endogenous KRAS protein. The HEK293 and MIA PaCa-2 cells were cultured in DMEM media supplemented with 10% fetal bovine serum, streptomycin, and penicillin. The AsPc-1, SW620, and H647 were cultured in RPMI media supplemented with 10% fetal bovine serum, streptomycin, and penicillin. The cells were seeded in white walled 96-well plates at 20,000 cells/well in 100 μL culture media in duplicate plates. After incubated at 37° C. under 5% CO2 overnight, the cells were treated with DMSO (control) or a compound, followed by the addition of 100 μL culture media to each well. After the cells were incubated for 24 h at 37° C. under 5% C02, 150 μL media were removed from each well and 50 μL NANOGLO-LGBIT lytic reagent were added to each well, and 50 μL CELLTITER-GLO (CTG) reagent was added to the duplicate plate. Following a 10-minute incubation with shaking, luminescence was measured using a Perkin Elmer ENVISION multimode plate reader. HiBiT signal was normalized to CTG signal. The results are summarized in Table 3, where “A” represents a percentage degradation value of no less than 50%; “B” represents a percentage degradation value of less than 50% and no less than 25%; “C” represents a percentage degradation value of less than 25% and no less than 10%; and “D” represents a percentage degradation value of less than 10%.
# Molm-13 cells = assay: Cell viability assay, inhibition of Molm-13 cells; conditions: Homo sapiens; for inhibition at 1 µM: compound at 1 μM; for inhibition at 3 µM: compound at 3 μM
# Procedure: [Worded in the source for another cell line; this cell line is reported under the same test.] (§2) H358, H23, SW48, and AsPC-1 cells were cultured in RPMI 1640 media supplemented with 10% fetal bovine serum, streptomycin, and penicillin. Lovo and SW480 cells were cultured in DMEM media supplemented with 10% fetal bovine serum, streptomycin, and penicillin. The cell lines were plated in their respective medium supplemented with 2.5% fetal bovine serum, streptomycin, and penicillin. All cell lines were plated in white walled 96-well plates at 2,000 cells/well or 384-well plates at 500 cells/well, except Lovo, which were plated at 4,000 or 1,000 cells/well, respectively. The cells were incubated in DMSO (control) or a compound for 3 days at 37° C. under 5% C02. A CELLTITER-GLO® reagent (100 μL) was then added to each well. After a 10 min incubation with shaking, luminescence was measured using an ENVISION® multimode plate reader. IC50 values are summarized in Table 1 and percentages of inhibition are summarized in Table 2, where compound T1 is 2-(4-(2-methyl-3,5-diphenylpyrazolo[1,5-a]pyrimidin-7-yl)piperazin-1-yl)ethan-1-ol.
# Lovo (G13D) cells = assay: Cell viability assay (CELLTITER-GLO), Lovo cells; conditions: 3 days incubation, 2.5% fetal bovine serum, read-out: Inhibition of Cancerous Cells IC50 (μM) Lovo (G13D)
# Procedure: as §2
# SW480 (G12V) cells = assay: Cell viability assay (CELLTITER-GLO), SW480 cells; conditions: 3 days incubation, 2.5% fetal bovine serum, read-out: Inhibition of Cancerous Cells IC50 (μM) SW480 (G12V)
# Procedure: as §2
# SW48 (wt) cells = assay: Cell viability assay (CELLTITER-GLO), SW48 cells; conditions: 3 days incubation, 2.5% fetal bovine serum, read-out: Inhibition of Cancerous Cells IC50 (μM) SW48 (wt)
# Procedure: as §2
# AsPC-1 (G12D) cells = assay: Cell viability assay (CELLTITER-GLO), AsPC-1 cells; conditions: 3 days incubation, 2.5% fetal bovine serum, read-out: Inhibition of Cancerous Cells IC50 (μM) AsPC-1 (G12D)
# Procedure: as §2
# H358 (G12C) cells = assay: Cell viability assay (CELLTITER-GLO), H358 cells; conditions: 3 days incubation, 2.5% fetal bovine serum, read-out: Inhibition of Cancerous Cells IC50 (μM) H358 (G12C)
# Procedure: as §2
# KRAS protein [2] = molecular target: T2, KRAS protein (Homo sapiens, UniProt P01116, G12D); assay: HIBIT degradation assay, AsPC-1 cells; conditions: 24 h, HiBiT signal normalized to CTG signal; for Effect on KRAS Protein Degradation, AsPC-1, 3 μM: compound at 3 μM; for Effect on KRAS Protein Degradation, AsPC-1, 5 μM: compound at 5 μM
# T2 construct: engineered to express a Hobbit-tagged endogenous KRAS protein; endogenous in cells; host or cells: AsPC-1, endogenous KRAS locus engineered with a HiBiT tag
# T2 sequence (P01116 1-188 isoform P01116-2 G12D): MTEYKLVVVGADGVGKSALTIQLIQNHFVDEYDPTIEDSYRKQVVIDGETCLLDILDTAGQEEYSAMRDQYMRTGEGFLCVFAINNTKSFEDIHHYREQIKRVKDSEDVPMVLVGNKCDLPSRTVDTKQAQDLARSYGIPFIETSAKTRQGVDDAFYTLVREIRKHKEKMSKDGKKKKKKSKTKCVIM
# Procedure: as §1
# KRAS protein [3] = molecular target: T3, KRAS protein (Homo sapiens, UniProt P01116, G13D); assay: HIBIT degradation assay, H647 cells; conditions: 24 h, HiBiT signal normalized to CTG signal
# T3 construct: engineered to express a Hobbit-tagged endogenous KRAS protein; endogenous in cells; host or cells: H647, endogenous KRAS locus engineered with a HiBiT tag
# T3 sequence (P01116 1-185 isoform P01116-2 G13D limits assumed): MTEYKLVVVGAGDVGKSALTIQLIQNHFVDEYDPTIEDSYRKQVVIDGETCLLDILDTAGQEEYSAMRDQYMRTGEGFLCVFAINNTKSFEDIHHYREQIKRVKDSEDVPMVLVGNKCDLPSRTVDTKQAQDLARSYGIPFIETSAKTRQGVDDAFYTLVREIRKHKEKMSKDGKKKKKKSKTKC
# Procedure: as §1
SMILES,inhibition at 1 µM (Molm-13 cells) [%],inhibition at 3 µM (Molm-13 cells) [%],"IC50 (Lovo (G13D) cells; Homo sapiens, 72 h) [µM]","IC50 (SW480 (G12V) cells; Homo sapiens, 72 h) [µM]","IC50 (SW48 (wt) cells; Homo sapiens, 72 h) [µM]","IC50 (AsPC-1 (G12D) cells; Homo sapiens, ASPC1, 72 h) [µM]","IC50 (H358 (G12C) cells; Homo sapiens, NCI-H358, 72 h) [µM]",further results
"Cc1nn2c(N3CCN(CCO)CC3)cc(-c3cccc(CCCCCCCN4CCN(C(=O)COc5cccc(N6CCC(=O)NC6=O)c5)CC4)c3)nc2c1-c1ccccc1 [Compound C2, 1-(3-(2-(4-(7-(3-(7-(4-(2-Hydroxyethyl)piperazin-1-yl)-2-methyl-3-phenyl-pyrazolo[1,5-a]pyrimidin-5-yl)phenyl)heptyl)piperazin-1-yl)-2-oxoethoxy)phenyl)dihydro-pyrimidine-2,4(1H,3H)-dione]",–,–,–,–,–,–,–,"Effect on KRAS Protein Degradation, HEK293, 3 μM (KRAS protein [1]): B (a percentage degradation value of less than 50% and no less than 25%)"
"Cc1nn2c(N3CCN(CCO)CC3)cc(-c3ccccc3)nc2c1-c1cccc(CCCCCN2CCN(C(=O)COc3cccc(N4CCC(=O)NC4=O)c3)CC2)c1 [Compound C10, 1-(3-(2-(4-(5-(3-(7-(4-(2-Hydroxyethyl)piperazin-1-yl)-2-methyl-5-phenyl-pyrazolo[1,5-a]pyrimidin-3-yl)phenyl)pentyl)piperazin-1-yl)-2-oxoethoxy)phenyl)dihydro-pyrimidine-2,4(1H,3H)-dione]",29,98,–,–,–,–,–,–
"Cc1nn2c(N3CCN(CCO)CC3)cc(-c3cccc(CCCN4CCN(C(=O)CNc5ccc6c(C7CCC(=O)NC7=O)nn(C)c6c5)CC4)c3)nc2c1-c1ccccc1 (centres unmarked) [Compound D1, 3-(6-((2-(4-(3-(3-(7-(4-(2-Hydroxyethyl)piperazin-1-yl)-2-methyl-3-phenyl-pyrazolo[1,5-a]pyrimidin-5-yl)phenyl)propyl)piperazin-1-yl)-2-oxoethyl)amino)-1-methyl-1H-indazol-3-yl)piperidine-2,6-dione]",24,98,–,–,–,–,–,–
"Cc1nn2c(N3CCN(CCO)CC3)cc(-c3ccccc3)nc2c1-c1cccc(CCCCCCCN2CCN(C(=O)CNc3cccc4c(C5CCC(=O)NC5=O)nn(C)c34)CC2)c1 (centres unmarked) [Compound D12, 3-(7-((2-(4-(7-(3-(7-(4-(2-Hydroxyethyl)piperazin-1-yl)-2-methyl-5-phenyl-pyrazolo[1,5-a]pyrimidin-3-yl)phenyl)heptyl)piperazin-1-yl)-2-oxoethyl)amino)-1-methyl-1H-indazol-3-yl)piperidine-2,6-dione]",–,–,0.92,0.47,0.96,1.4,1.2,–
"Cc1nn2c(N3CCN(CCO)CC3)cc(-c3ccccc3)nc2c1-c1cccc(CCCN2CCN(C(=O)CNc3ccc4c(N5CCC(=O)NC5=O)nn(C)c4c3)CC2)c1 [Compound D13, 1-(6-((2-(4-(3-(3-(7-(4-(2-Hydroxyethyl)piperazin-1-yl)-2-methyl-5-phenyl-pyrazolo[1,5-a]pyrimidin-3-yl)phenyl)propyl)piperazin-1-yl)-2-oxoethyl)amino)-1-methyl-1H-indazol-3-yl)dihydropyrimidine-2,4(1H,3H)-dione]",–,–,0.66,0.76,2,2.3,1.1,–
"Cc1nn2c(N3CCN(CCO)CC3)cc(-c3ccccc3)nc2c1-c1cccc(CCCCCN2CCN(C(=O)CNc3ccc4c(N5CCC(=O)NC5=O)nn(C)c4c3)CC2)c1 [Compound D14, 1-(6-((2-(4-(5-(3-(7-(4-(2-Hydroxyethyl)piperazin-1-yl)-2-methyl-5-phenyl-pyrazolo[1,5-a]pyrimidin-3-yl)phenyl)pentyl)piperazin-1-yl)-2-oxoethyl)amino)-1-methyl-1H-indazol-3-yl)dihydropyrimidine-2,4(1H,31H)-dione]",–,–,–,–,–,–,–,IC50 (Lovo (G13D) cells): 0.62 µM; IC50 (SW480 (G12V) cells): 1.1 µM; IC50 (SW48 (wt) cells): > 10 µM; IC50 (AsPC-1 (G12D) cells): > 10 µM; IC50 (H358 (G12C) cells): 2.2 µM
"Cc1nn2c(N3CCN(CCO)CC3)cc(-c3ccccc3)nc2c1-c1cccc(CCCCCCCN2CCN(C(=O)CNc3ccc4c(N5CCC(=O)NC5=O)nn(C)c4c3)CC2)c1 [Compound D15, 1-(6-((2-(4-(7-(3-(7-(4-(2-Hydroxyethyl)piperazin-1-yl)-2-methyl-5-phenyl-pyrazolo[1,5-a]pyrimidin-3-yl)phenyl)heptyl)piperazin-1-yl)-2-oxoethyl)amino)-1-methyl-1H-indazol-3-yl)dihydropyrimidine-2,4(1H,3H)-dione]",–,–,0.64,0.56,1.1,1.4,1.3,–
"Cc1nn2c(N3CCN(CCO)CC3)cc(-c3ccccc3)nc2c1-c1cccc(CCCN2CCN(C(=O)CNc3cccc4c(N5CCC(=O)NC5=O)nn(C)c34)CC2)c1 [Compound D16, 1-(7-((2-(4-(3-(3-(7-(4-(2-Hydroxyethyl)piperazin-1-yl)-2-methyl-5-phenyl-pyrazolo[1,5-a]pyrimidin-3-yl)phenyl)propyl)piperazin-1-yl)-2-oxoethyl)amino)-1-methyl-1H-indazol-3-yl)dihydropyrimidine-2,4(1H,3H)-dione]",–,–,–,–,–,–,–,"Effect on KRAS Protein Degradation, HEK293, 3 μM (KRAS protein [1]): C (a percentage degradation value of less than 25% and no less than 10%); Effect on KRAS Protein Degradation, HEK293, 5 μM (KRAS protein [1]; compound at 5 μM): C (a percentage degradation value of less than 25% and no less than 10%); Effect on KRAS Protein Degradation, AsPC-1, 3 μM (KRAS protein [2]): C (a percentage degradation value of less than 25% and no less than 10%); Effect on KRAS Protein Degradation, AsPC-1, 5 μM (KRAS protein [2]): D (a percentage degradation value of less than 10%)"
"Cc1nn2c(N3CCN(CCO)CC3)cc(-c3ccccc3)nc2c1-c1cccc(CCCCCCCN2CCN(C(=O)CNc3cccc4c(N5CCC(=O)NC5=O)nn(C)c34)CC2)c1 [Compound D18, 1-(7-((2-(4-(7-(3-(7-(4-(2-hydroxyethyl)piperazin-1-yl)-2-methyl-5-phenyl-pyrazolo[1,5-a]pyrimidin-3-yl)phenyl)heptyl)piperazin-1-yl)-2-oxoethyl)amino)-1-methyl-1H-indazol-3-yl)dihydropyrimidine-2,4(1H,3H)-dione]",14,95,–,–,–,–,–,"Effect on KRAS Protein Degradation, AsPC-1, 3 μM (KRAS protein [2]): B (a percentage degradation value of less than 50% and no less than 25%); Effect on KRAS Protein Degradation, AsPC-1, 5 μM (KRAS protein [2]): C (a percentage degradation value of less than 25% and no less than 10%); Effect on KRAS Protein Degradation, H647, 3 μM (KRAS protein [3]; compound at 3 μM): D (a percentage degradation value of less than 10%); Effect on KRAS Protein Degradation, H647, 5 μM (KRAS protein [3]; compound at 5 μM): C (a percentage degradation value of less than 25% and no less than 10%)"
